Assay results published in US20250282794A1 (CURADEV PHARMA LTD, priority 2022, published 2025).

Each compound was assayed against recombinant full length HPK-1 enzyme (Homo sapiens (Human), UniProt Q92918) (assay: HPK-1 biochemical enzyme assay (ADP-Glo kinase inhibition)). Settings: recombinant full length HPK-1 6.8 nM, 10 μM ATP, 12.5 μM MBP, 30 mins at 25° C.
Sequence of recombinant full length HPK-1 enzyme (Q92918 whole entry, species assumed): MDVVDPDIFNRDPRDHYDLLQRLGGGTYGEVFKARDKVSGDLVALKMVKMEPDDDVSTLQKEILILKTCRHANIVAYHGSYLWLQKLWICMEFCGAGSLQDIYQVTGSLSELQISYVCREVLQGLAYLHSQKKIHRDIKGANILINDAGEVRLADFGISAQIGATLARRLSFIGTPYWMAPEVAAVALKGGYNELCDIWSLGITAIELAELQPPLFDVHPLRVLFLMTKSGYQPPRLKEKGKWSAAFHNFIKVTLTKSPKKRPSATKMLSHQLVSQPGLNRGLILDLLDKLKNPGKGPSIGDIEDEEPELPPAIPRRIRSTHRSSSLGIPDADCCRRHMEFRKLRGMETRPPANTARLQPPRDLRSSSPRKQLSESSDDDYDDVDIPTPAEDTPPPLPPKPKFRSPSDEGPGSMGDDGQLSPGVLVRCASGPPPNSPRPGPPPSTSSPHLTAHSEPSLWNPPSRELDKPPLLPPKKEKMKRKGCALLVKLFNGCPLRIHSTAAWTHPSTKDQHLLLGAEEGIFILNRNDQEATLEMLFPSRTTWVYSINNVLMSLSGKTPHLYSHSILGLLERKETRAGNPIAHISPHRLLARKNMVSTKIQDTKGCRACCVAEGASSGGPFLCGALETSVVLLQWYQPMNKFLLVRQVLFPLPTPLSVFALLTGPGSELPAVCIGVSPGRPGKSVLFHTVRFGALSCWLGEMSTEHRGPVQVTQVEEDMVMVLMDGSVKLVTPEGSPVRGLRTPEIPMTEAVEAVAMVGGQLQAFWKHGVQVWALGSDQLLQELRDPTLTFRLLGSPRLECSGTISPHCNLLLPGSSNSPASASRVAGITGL
How it was run: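 Recombinant full-length human HPK-1 (6.8 nM) incubated 30 min at 25° C. with 10 μM ATP and 12.5 μM swine MBP in 40 mM Tris pH 7.4, 20 mM MgCl2, 50 μM DTT, 0.1 mg/mL BSA. ADP measured by ADP-Glo; IC50 from 10 concentrations, normalized to no-enzyme and vehicle controls.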
Cc1c(Nc2cc[nH]c(=O)c2C(=O)Nc2ccc(N3CCN(C(=O)N4CC5(COC5)C4)CC3)cc2)cnc2c1NCCO2 [Example 321, N-(4-(4-(2-oxa-6-azaspiro[3.3]heptane-6-carbonyl)piperazin-1-yl)phenyl)-4-((8-methyl-2,3-dihydro-1H-pyrido[2,3-b][1,4]oxazin-7-yl)amino)-2-oxo-1,2-dihydropyridine-3-carboxamide] was tested, and the IC50 was 10 to 100 nM. For COCCCN1CCN(c2ccc(NC(=O)c3c(Nc4cnc5c(c4C)NCC(C)O5)cc[nH]c3=O)cc2)CC1 (stereo not shown) [Example 406, 4-((3,8-dimethyl-2,3-dihydro-1H-pyrido[2,3-b][1,4]oxazin-7-yl)amino)-N-(4-(4-(3-methoxypropyl)piperazin-1-yl)phenyl)-2-oxo-1,2-dihydropyridine-3-carboxamide], the IC50 was 10 to 100 nM. Cc1c(Nc2cc[nH]c(=O)c2C(=O)Nc2ccc(N3CCN(CCC4CNC4)CC3)cc2)cnc2c1NCCO2 [Example 238, N-(4-(4-(2-(azetidin-3-yl)ethyl)piperazin-1-yl)phenyl)-4-((8-methyl-2,3-dihydro-1H-pyrido[2,3-b][1,4]oxazin-7-yl)amino)-2-oxo-1,2-dihydropyridine-3-carboxamide] was tested, and the IC50 was no more than 10 nM. Cc1c(Nc2cc[nH]c(=O)c2C(=O)Nc2ccc(N3CCC(N)CC3)cc2)cnc2c1NCCO2 [Example 154, N-(4-(4-aminopiperidin-1-yl)phenyl)-4-((8-methyl-2,3-dihydro-1H-pyrido[2,3-b][1,4]oxazin-7-yl)amino)-2-oxo-1,2-dihydropyridine-3-carboxamide] showed an IC50 of no more than 10 nM. For COCCN1CCN(c2ccc(NC(=O)c3c(Nc4cnc5c(c4C)NCCO5)cc[nH]c3=O)cc2)C[C@H]1C [Example 348, (R)-N-(4-(4-(2-methoxyethyl)-3-methylpiperazin-1-yl)phenyl)-4-((8-methyl-2,3-dihydro-1H-pyrido[2,3-b][1,4]oxazin-7-yl)amino)-2-oxo-1,2-dihydropyridine-3-carboxamide], the IC50 was no more than 10 nM. Compound Cc1c(Nc2cc[nH]c(=O)c2C(=O)Nc2ccc(N3CCN(C(=O)C4C(C)(C)C4(C)C)CC3)cc2)cnc2c1NCCO2 [Example 334, 4-((8-methyl-2,3-dihydro-1H-pyrido[2,3-b][1,4]oxazin-7-yl)amino)-2-oxo-N-(4-(4-(2,2,3,3-tetramethylcyclopropane-1-carbonyl)piperazin-1-yl)phenyl)-1,2-dihydropyridine-3-carboxamide] has an IC50 of no more than 10 nM. Cc1c(Nc2cc[nH]c(=O)c2C(=O)Nc2ccc(N3CCN(C)CC3)c(Br)c2)cnc2c1NCCO2 [Example 270, N-(3-bromo-4-(4-methylpiperazin-1-yl)phenyl)-4-((8-methyl-2,3-dihydro-1H-pyrido[2,3-b][1,4]oxazin-7-yl)amino)-2-oxo-1,2-dihydropyridine-3-carboxamide] showed an IC50 of no more than 10 nM. Cc1c(Nc2cc[nH]c(=O)c2C(=O)Nc2ccc(N3CCN4C(=O)CC[C@H]4C3)cc2)cnc2c1NCCO2 [Example 359, (S)-4-((8-methyl-2,3-dihydro-1H-pyrido[2,3-b][1,4]oxazin-7-yl)amino)-2-oxo-N-(4-(6-oxohexahydropyrrolo[1,2-a]pyrazin-2(1H)-yl)phenyl)-1,2-dihydropyridine-3-carboxamide] gave an IC50 of 10 to 100 nM. For Cc1c(Nc2cc[nH]c(=O)c2C(=O)Nc2ccc3c(c2)OCC(=O)N3)cnc2c1NCCO2 [Example 269, 4-((8-methyl-2,3-dihydro-1H-pyrido[2,3-b][1,4]oxazin-7-yl)amino)-2-oxo-N-(3-oxo-3,4-dihydro-2H-benzo[b][1,4]oxazin-7-yl)-1,2-dihydropyridine-3-carboxamide], the IC50 was 10 to 100 nM. Cc1c(Nc2cc[nH]c(=O)c2C(=O)Nc2ccc(N3CCN(C)CC3)cc2)cnc2c1NCCO2 [Example 45, 4-((8-Methyl-2,3-dihydro-1H-pyrido[2,3-b][1,4]oxazin-7-yl)amino)-N-(4-(4-methylpiperazin-1-yl)phenyl)-2-oxo-1,2-dihydropyridine-3-carboxamide] gave an IC50 of no more than 10 nM. Cc1c(Nc2cc[nH]c(=O)c2C(=O)Nc2ccc(N3CCN(C)CC3)c(-n3cnnc3)c2)cnc2c1NCCO2 [Example 211, 4-((8-methyl-2,3-dihydro-1H-pyrido[2,3-b][1,4]oxazin-7-yl)amino)-N-(4-(4-methylpiperazin-1-yl)-3-(4H-1,2,4-triazol-4-yl)phenyl)-2-oxo-1,2-dihydropyridine-3-carboxamide] gave an IC50 of 10 to 100 nM. With Cc1c(Nc2cc[nH]c(=O)c2C(=O)Nc2ccc(N3CCN(C(=O)C(C)(C)C)CC3)cc2)cnc2c1NCCO2 [Example 341, 4-((8-methyl-2,3-dihydro-1H-pyrido[2,3-b][1,4]oxazin-7-yl)amino)-2-oxo-N-(4-(4-pivaloylpiperazin-1-yl)phenyl)-1,2-dihydropyridine-3-carboxamide] the IC50 was no more than 10 nM. Compound Cc1c(Nc2cc[nH]c(=O)c2C(=O)Nc2ccc(N3CCN(C(=O)CCO)CC3)cc2)cnc2c1NCCO2 [Example 403, N-(4-(4-(3-hydroxypropanoyl)piperazin-1-yl)phenyl)-4-((8-methyl-2,3-dihydro-1H-pyrido[2,3-b][1,4]oxazin-7-yl)amino)-2-oxo-1,2-dihydropyridine-3-carboxamide] has an IC50 of no more than 10 nM. With Cc1c(Nc2cc[nH]c(=O)c2C(=O)Nc2ccc(N3CCN(C4CC4)CC3)c(F)c2)cnc2c1NCCO2 [Example 376, N-(4-(4-cyclopropylpiperazin-1-yl)-3-fluorophenyl)-4-((8-methyl-2,3-dihydro-1H-pyrido[2,3-b][1,4]oxazin-7-yl)amino)-2-oxo-1,2-dihydropyridine-3-carboxamide] the IC50 was no more than 10 nM. Compound Cc1c(Nc2cc[nH]c(=O)c2C(=O)Nc2ccc(N3CCN(C)C(=O)C3)cc2)cnc2c1NCCO2 [Example 272, 4-((8-methyl-2,3-dihydro-1H-pyrido[2,3-b][1,4]oxazin-7-yl)amino)-N-(4-(4-methyl-3-oxopiperazin-1-yl)phenyl)-2-oxo-1,2-dihydropyridine-3-carboxamide] has an IC50 of 10 to 100 nM. Work on CCN1CCN(c2ccc(NC(=O)c3c(Nc4cnc5c(c4C)NCC(C)O5)cc[nH]c3=O)cc2F)CC1 (stereo not shown) [Example 361, 4-((3,8-dimethyl-2,3-dihydro-1H-pyrido[2,3-b][1,4]oxazin-7-yl)amino)-N-(4-(4-ethylpiperazin-1-yl)-3-fluorophenyl)-2-oxo-1,2-dihydropyridine-3-carboxamide] yielded an IC50 of 10 to 100 nM. Cc1c(Nc2cc[nH]c(=O)c2C(=O)Nc2ccc(N3CCN(C(=O)C(C)(C)F)CC3)cc2)cnc2c1NCCO2 [Example 342, N-(4-(4-(2-fluoro-2-methylpropanoyl)piperazin-1-yl)phenyl)-4-((8-methyl-2,3-dihydro-1H-pyrido[2,3-b][1,4]oxazin-7-yl)amino)-2-oxo-1,2-dihydropyridine-3-carboxamide] was tested, and the IC50 was no more than 10 nM. Cc1c(Nc2cc[nH]c(=O)c2C(=O)Nc2ccc(N3CCN(Cc4ccnn4C)CC3)cc2)cnc2c1NCCO2 [Example 308, N-(4-(4-((1-methyl-1H-pyrazol-5-yl)methyl)piperazin-1-yl)phenyl)-4-((8-methyl-2,3-dihydro-1H-pyrido[2,3-b][1,4]oxazin-7-yl)amino)-2-oxo-1,2-dihydropyridine-3-carboxamide] gave an IC50 of no more than 10 nM. Cc1c(Nc2cc[nH]c(=O)c2C(=O)Nc2cnn(CC(F)(F)F)c2)cnc2c1NCCO2 [Example 409, 4-((8-methyl-2,3-dihydro-1H-pyrido[2,3-b][1,4]oxazin-7-yl)amino)-2-oxo-N-(1-(2,2,2-trifluoroethyl)-1H-pyrazol-4-yl)-1,2-dihydropyridine-3-carboxamide] showed an IC50 of 10 to 100 nM.
